In patent US11866695B2, “Methods and systems and related compositions for mixtures separation with a solid matrix” (CALIFORNIA INSTITUTE OF TECHNOLOGY, priority 2019, dated 2024):
Like-named read-outs stand apart in the source and are kept apart here.

Columns and labels:
λ phage DNA [1] = experiment: Zymo Quick-DNA/RNA MagBead extraction with air dry replaced by TPW, LAMP; format: biochemical; details: 10× dilution of eluent into LAMP
Experimental: LAMP reactions contained the following concentrations of reagents: 1× Isothermal Amplification Buffer (20 mM Tris-HCl pH 8.8, 10 mM (NH4)2SO4, 50 mM KCl, 5 mM MgSO4, 0.1% Tween-20, B0537S, NEB, Ipswich, Mass., USA), an additional 2 mM MgSO4 (B1003S, NEB), 1.4 mM deoxynucleotide mix (N0447L or N0446S, NEB), […] Invitrogen Syto-9 (S34854, Thermo Fisher Scientific), […] Invitrogen bovine serum albumin (15561020, Thermo Fisher Scientific), 320 U/mL WarmStart Bst 2.0 (M0538L, NEB), and were supplemented with nuclease-free water (not DEPC-Treated, 4387936, Thermo Fisher Scientific) up to 10 μL. LAMP primers (Integrated DNA Technologies (IDT), Coralville, Iowa, USA) were designed, ordered, and added at NEB's recommended concentrations of […] FIP/BIP, 0.2μM F3/B3, and […] LoopF/B.
Each 96-well plate was sealed and briefly spun. Heating and real-time imaging were performed on the Bio-Rad CFX-96 Touch Real-Time PCR Detection System (1855195, Bio-Rad). Each 96-well plate was cooled to 12° C. for 2 min, held at 68° C. for 47 min with 35-second fluorescence read intervals, and a melt-curve analysis was performed. For the E. coli DNA dilution experiment, the 68° C. step was held for 105 min. Time-to-positive (TTP) was determined when the software's automated baseline corrected fluorescence reached 1000 RFU.
The Zymo Quick-DNA/RNA Viral MagBead (R2140) was tested. […]

λ phage DNA [2] = experiment: Zymo Quick-DNA/RNA MagBead extraction with air dry replaced by TPW, qPCR; format: biochemical; details: 10× dilution of eluent into qPCR
Experimental: qPCR reactions contained 1× Bio-Rad SsoFast Supermix (1725201, Bio-Rad), PCR primers (IDT) at […] each, and were supplemented with nuclease-free water up to 10 μL. Each 96-well plate (thin-wall clear well, HSP9641, Bio-Rad) was sealed (Microseal B, MSB1001, Bio-Rad) and briefly spun in a Mini Plate Spinner Centrifuge (14-100-141, Fisher Scientific). Heating and real-time imaging were performed on the Bio-Rad CFX-96 Touch Real-Time PCR Detection System by heating to 95° C. for 5 min, cycling 40 times between 95° C. for 15 s, 60° C. for 15 s, and 72° C. for 20 s, and taking a melt-curve analysis. For the E. coli DNA dilution experiment, qPCR was run for 60 cycles. Fluorescence readings were taken at the end of each extension step. Quantification cycle (Cq) was determined when the software's automated baseline corrected fluorescence reached 200 RFU.
The Zymo Quick-DNA/RNA Viral MagBead (R2140) was tested. For the Zymo MagBead kit, 200 μL sample was mixed with 200 μL Zymo 2×DNA/RNA Shield, 4 μL Proteinase K, and 800 μL Zymo Viral DNA/RNA Buffer. 1204 μL was added to each tube, mixed with 20 μL MagBinding Beads, and placed on an UltraRocker Rocking Platform (1660709EDU, Bio-Rad, Hercules, Calif., USA) for 10 min at max speed. Tubes were transferred to a DynaMag-2 magnetic rack (12321D, Thermo Fisher Scientific) and manufacturer instructions was followed for the remainder of the protocol. […]

[3] = cited from earlier work
[4] = tested on: qPCR spiked with 5×104 copies λ phage DNA; format: biochemical; details: 1 μL candidate in 11 μL total; for Avg Cq: N.D. = not detected within 40 cycles; for ΔCq: minus the No additive control
Experimental: Heating and real-time imaging were performed on the Bio-Rad CFX-96 Touch Real-Time PCR Detection System by heating to 95° C. for 5 min, cycling 40 times between 95° C. for 15 s, 60° C. for 15 s, and 72° C. for 20 s, and taking a melt-curve analysis. For the E. coli DNA dilution experiment, qPCR was run for 60 cycles. Fluorescence readings were taken at the end of each extension step. Quantification cycle (Cq) was determined when the software's automated baseline corrected fluorescence reached 200 RFU.
Criterion 1a was investigated directly by performing qPCR and LAMP reactions. Reactions were spiked with λ phage DNA, diluted up to 10 μL, and an additional 1 μL of different wash buffer candidates was added to a total of 11 μL. […] As an experimental control, a “No Additive” condition was tested, which was a 10 μL reaction with optimized reaction conditions and no inhibitors. To control for the effects of a 1 μL dilution on the reaction, a “Water” condition which was an 11 μL reaction with no inhibitors was also tested.

## CCCCCCCCCCCO [1-undecanol]
λ phage DNA [1]
  TTP improvement: 0.7 min
λ phage DNA [2]
  cycle delay vs manufacturer protocol: 1.1 cycle
[3]
  Solubility of TPW Candidate in water: 0.0015 g/100 mL
  Solubility of water in TPW Candidate: 3.4 g/100 g
[4]
  Avg Cq: 19.67 cycles
  ΔCq: −0.42 cycles

## CCO [Ethanol, ethanol]
[3]; in words
  Solubility of TPW Candidate in water: Miscible
  Solubility of water in TPW Candidate: Miscible
[4]
  Avg Cq: 25.30 cycles
  ΔCq: 5.21 cycles
